From ChEMBL document CHEMBL5034001 (J Med Chem, 2021)
Activity calls are given as the source filed them. The rule behind the calls is not given here.

Tests used:
SR [1] = assay: Antiproliferative activity against human SR cells assessed as inhibition of cell growth incubated for 72 hrs by CCK8 assay; format: functional, cell-based
[2] = molecular target: T1, ALK tyrosine kinase receptor (Homo sapiens, UniProt Q9UM73); assay: Induction of ALK degradation in human SR cells at 100 nM pretreated with proteosome inhibitor MLN4924 for 4 hrs followed by compound addition and measured after 16 hrs by Western blot analysis; format: cell-based
T1 sequence (Q9UM73 19-1620 limits assumed): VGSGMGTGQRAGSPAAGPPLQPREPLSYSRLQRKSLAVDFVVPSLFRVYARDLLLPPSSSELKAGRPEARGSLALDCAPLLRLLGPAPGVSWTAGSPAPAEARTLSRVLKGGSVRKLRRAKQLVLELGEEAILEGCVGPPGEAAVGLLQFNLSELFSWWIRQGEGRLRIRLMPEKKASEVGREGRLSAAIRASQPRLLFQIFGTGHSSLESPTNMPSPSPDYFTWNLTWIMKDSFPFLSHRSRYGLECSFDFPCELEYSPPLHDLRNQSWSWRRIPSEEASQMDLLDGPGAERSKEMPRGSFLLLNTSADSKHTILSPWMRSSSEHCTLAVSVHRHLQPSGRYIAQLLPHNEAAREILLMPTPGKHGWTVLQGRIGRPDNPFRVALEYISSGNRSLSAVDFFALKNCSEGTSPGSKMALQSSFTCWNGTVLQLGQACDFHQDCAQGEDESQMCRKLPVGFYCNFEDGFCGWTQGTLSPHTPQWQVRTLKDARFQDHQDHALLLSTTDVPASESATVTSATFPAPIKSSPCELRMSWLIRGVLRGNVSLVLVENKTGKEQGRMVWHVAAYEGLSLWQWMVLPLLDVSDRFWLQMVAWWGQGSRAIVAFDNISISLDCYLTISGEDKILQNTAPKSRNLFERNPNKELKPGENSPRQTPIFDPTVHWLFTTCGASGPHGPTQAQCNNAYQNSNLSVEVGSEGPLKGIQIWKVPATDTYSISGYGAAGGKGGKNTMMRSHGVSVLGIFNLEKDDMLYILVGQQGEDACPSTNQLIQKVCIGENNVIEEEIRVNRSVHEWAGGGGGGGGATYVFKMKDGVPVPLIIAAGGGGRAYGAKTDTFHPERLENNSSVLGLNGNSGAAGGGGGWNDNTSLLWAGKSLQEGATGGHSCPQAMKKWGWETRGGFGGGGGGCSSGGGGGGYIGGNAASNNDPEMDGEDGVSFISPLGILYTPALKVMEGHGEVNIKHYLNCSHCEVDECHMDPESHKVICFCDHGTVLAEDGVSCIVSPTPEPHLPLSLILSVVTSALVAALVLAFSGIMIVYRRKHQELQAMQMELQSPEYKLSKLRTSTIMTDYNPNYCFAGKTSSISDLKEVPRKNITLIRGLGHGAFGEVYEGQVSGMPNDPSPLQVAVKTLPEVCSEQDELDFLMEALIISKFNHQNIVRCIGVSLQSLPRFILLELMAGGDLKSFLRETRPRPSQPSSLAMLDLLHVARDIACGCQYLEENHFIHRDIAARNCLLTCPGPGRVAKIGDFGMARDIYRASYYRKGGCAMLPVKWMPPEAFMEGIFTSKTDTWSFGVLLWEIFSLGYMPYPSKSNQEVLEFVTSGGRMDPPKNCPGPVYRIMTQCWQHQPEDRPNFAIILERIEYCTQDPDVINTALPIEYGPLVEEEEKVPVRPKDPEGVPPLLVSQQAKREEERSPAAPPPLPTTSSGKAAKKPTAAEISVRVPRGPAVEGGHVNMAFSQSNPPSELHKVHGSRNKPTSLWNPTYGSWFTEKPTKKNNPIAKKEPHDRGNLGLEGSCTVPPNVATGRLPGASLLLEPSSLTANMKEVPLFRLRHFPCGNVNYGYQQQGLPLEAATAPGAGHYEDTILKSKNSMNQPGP

[3] = molecular target: T1, ALK tyrosine kinase receptor; assay: Induction of ALK degradation in human SR cells at 100 nM incubated with compound for 24 hrs followed by compound washout and measured upto 72 hrs by Western blot analysis; format: cell-based
SR [4] = assay: Antiproliferative activity against human SR cells assessed as inhibition of cell growth at 10 nM preincubated for 5 days followed by compound washout and measured on day 7 and 9 by CCK8 assay; format: functional, cell-based; details: time 5.0 day
[5] = molecular target: NPM/ALK (Nucleophosmin/ALK tyrosine kinase receptor) (Homo sapiens) (UniProt Q9UM73+P06748); assay: Induction of NPM-ALK degradation in human SR cells at 0.1 to 50 nM by Western blot analysis; format: cell-based; details: dose 0.1-50 nM
NPM/ALK (Nucleophosmin/ALK tyrosine kinase receptor) (Homo sapiens), sequence (P06748 whole entry partner): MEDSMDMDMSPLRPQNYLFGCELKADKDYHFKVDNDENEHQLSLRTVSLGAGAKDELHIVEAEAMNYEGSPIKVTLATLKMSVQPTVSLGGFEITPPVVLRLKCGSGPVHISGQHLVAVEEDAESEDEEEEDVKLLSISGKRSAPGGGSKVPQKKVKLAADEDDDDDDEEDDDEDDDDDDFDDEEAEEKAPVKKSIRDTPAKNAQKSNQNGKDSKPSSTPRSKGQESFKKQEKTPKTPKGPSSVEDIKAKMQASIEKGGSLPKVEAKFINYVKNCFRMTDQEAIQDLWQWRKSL
NPM/ALK (Nucleophosmin/ALK tyrosine kinase receptor) (Homo sapiens), sequence (Q9UM73 19-1620 limits assumed): as the sequence (Q9UM73 19-1620 limits assumed) above

[6] = molecular target: T1, ALK tyrosine kinase receptor; assay: Inhibition of ALK downstream signalling in human SR cells assessed as reduction in ratio of pALK at 0.1 to 50 nM by Western blot analysis; format: cell-based; details: dose 0.1-50 nM
Calu-1 [7] = assay: Induction of G1 cell cycle arrest in human Calu-1 cells at 100 nM after 24 to 48 hrs; format: functional, cell-based; details: time 24-48 hrs
MDA-MB-231 [8] = assay: Induction of apoptosis in human MDA-MB-231 cells at 100 nM after 72 hrs; format: functional, cell-based
Calu-1 [9] = assay: Inhibition of cell migration in human Calu-1 cells at 100 nM after 12 to 24 hrs by wound healing assay; format: functional, cell-based; details: time lower […], time upper 24.0 hrs
Calu-1 [10] = assay: Down regulation of FAK in human Calu-1 cells at 1 to 1000 nM after 16 hrs by Western blot analysis; format: functional, cell-based; details: dose 1-1000 nM
[11] = molecular target: Focal adhesion kinase 1 (Homo sapiens) (UniProt Q05397); assay: Induction of FAK degradation in human NCI-H2228 cells at 1 nM after 16 hrs by Western blot analysis; format: cell-based
Focal adhesion kinase 1 (Homo sapiens), sequence (Q05397 2-1052 limits assumed): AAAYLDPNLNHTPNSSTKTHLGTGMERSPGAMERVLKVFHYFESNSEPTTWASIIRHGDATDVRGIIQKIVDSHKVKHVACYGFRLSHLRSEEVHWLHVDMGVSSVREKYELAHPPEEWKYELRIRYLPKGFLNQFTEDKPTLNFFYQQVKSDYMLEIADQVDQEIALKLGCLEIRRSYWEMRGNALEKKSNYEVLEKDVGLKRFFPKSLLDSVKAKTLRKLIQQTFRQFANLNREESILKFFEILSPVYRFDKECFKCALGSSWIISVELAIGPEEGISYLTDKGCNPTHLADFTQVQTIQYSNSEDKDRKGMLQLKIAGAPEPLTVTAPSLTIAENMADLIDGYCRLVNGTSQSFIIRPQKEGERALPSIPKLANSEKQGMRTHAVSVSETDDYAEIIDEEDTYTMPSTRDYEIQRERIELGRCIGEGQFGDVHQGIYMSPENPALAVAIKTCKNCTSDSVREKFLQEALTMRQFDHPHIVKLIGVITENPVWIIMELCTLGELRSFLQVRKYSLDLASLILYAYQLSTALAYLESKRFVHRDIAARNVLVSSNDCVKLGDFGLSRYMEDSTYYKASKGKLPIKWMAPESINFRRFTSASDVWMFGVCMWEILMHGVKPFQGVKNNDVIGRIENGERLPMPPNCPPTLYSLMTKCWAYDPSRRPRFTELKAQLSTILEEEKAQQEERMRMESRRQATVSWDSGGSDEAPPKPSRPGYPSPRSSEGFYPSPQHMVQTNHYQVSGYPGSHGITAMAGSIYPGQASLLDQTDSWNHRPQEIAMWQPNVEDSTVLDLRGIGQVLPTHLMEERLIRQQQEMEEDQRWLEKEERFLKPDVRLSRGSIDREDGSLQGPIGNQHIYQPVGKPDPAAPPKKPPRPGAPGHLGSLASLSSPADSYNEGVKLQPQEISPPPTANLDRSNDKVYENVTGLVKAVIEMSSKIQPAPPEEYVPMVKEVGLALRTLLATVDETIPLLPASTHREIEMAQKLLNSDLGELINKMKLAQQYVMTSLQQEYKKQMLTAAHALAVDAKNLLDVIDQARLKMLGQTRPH

Calu-1 [12] = assay: Down regulation of C-myc protein expression in human Calu-1 cells at 1 to 500 nM after 48 hrs by Western blot analysis; format: functional, cell-based; details: dose 1-500 nM
MDA-MB-231 [13] = assay: Down regulation of cyclin D1 protein expression in human MDA-MB-231 cells at 1 to 500 nM after 48 hrs by Western blot analysis; format: functional, cell-based; details: dose 1-500 nM
MDA-MB-231 [14] = assay: Down regulation of C-myc protein expression in human MDA-MB-231 cells at 1 to 500 nM after 48 hrs by Western blot analysis; format: functional, cell-based; details: dose 1-500 nM
[15] = system: Leucine-rich repeat serine/threonine-protein kinase 2 (Homo sapiens), Q5S007 [G2019S]; assay: Binding affinity to human partial length LRRK2 G2019S mutant (H970 to E2527 residues) expressed in mammalian expression system assessed as residual binding level at 100 nM by Kinomescan method relative to control
[16] = molecular target: Tyrosine-protein kinase JAK3 (Homo sapiens) (UniProt P52333); assay: Binding affinity to wild-type human partial length JAK3 JH1 catalytic domain (I781 to S1124 residues) expressed in mammalian expression system assessed as residual binding level at 100 nM by Kinomescan method relative to control
Tyrosine-protein kinase JAK3 (Homo sapiens), sequence (P52333 whole entry, the tested form may be a part): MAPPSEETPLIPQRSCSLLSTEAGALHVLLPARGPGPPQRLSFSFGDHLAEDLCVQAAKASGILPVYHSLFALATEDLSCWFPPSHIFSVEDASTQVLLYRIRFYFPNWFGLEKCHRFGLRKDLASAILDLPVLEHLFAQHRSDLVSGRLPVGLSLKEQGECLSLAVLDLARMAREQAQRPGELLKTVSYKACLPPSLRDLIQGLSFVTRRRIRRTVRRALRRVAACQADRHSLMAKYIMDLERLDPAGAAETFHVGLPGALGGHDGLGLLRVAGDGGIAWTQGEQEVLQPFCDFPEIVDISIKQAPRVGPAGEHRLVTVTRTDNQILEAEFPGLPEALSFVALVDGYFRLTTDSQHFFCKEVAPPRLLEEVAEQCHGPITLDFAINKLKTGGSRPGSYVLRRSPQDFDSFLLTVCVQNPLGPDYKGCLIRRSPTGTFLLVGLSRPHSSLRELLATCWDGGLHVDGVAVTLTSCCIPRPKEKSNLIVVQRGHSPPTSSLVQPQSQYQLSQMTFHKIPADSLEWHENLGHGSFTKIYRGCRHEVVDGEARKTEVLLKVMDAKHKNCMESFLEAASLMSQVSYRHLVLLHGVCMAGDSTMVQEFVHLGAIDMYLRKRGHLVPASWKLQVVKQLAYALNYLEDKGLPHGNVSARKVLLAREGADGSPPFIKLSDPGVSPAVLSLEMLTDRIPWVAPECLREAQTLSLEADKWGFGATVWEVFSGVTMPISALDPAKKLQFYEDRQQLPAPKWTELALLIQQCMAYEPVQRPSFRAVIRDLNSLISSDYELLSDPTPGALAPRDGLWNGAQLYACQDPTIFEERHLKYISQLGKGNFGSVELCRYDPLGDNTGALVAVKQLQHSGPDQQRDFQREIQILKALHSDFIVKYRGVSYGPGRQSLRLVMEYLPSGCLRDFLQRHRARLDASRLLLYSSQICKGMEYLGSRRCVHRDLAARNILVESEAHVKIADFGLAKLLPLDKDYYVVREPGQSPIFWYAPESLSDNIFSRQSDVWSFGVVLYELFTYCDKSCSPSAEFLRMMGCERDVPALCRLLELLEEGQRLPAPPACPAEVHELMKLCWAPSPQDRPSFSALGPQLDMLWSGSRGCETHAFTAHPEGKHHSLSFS

[17] = molecular target: Serine/threonine-protein kinase RIO1 (Homo sapiens) (UniProt Q9BRS2); assay: Binding affinity to wild-type human full length RIOK1 (M1 to K568 residues) expressed in bacterial expression system assessed as residual binding level at 100 nM by Kinomescan method relative to control
[18] = system: Mast/stem cell growth factor receptor Kit (Homo sapiens), P10721 [D816V]; assay: Binding affinity to human partial length KIT D816V mutant (I571 to D952 residues) expressed in bacterial expression system assessed as residual binding level at 100 nM by Kinomescan method relative to control
Mast/stem cell growth factor receptor Kit (Homo sapiens), P10721 [D816V], sequence (P10721 whole entry D816V, the tested form may be a part): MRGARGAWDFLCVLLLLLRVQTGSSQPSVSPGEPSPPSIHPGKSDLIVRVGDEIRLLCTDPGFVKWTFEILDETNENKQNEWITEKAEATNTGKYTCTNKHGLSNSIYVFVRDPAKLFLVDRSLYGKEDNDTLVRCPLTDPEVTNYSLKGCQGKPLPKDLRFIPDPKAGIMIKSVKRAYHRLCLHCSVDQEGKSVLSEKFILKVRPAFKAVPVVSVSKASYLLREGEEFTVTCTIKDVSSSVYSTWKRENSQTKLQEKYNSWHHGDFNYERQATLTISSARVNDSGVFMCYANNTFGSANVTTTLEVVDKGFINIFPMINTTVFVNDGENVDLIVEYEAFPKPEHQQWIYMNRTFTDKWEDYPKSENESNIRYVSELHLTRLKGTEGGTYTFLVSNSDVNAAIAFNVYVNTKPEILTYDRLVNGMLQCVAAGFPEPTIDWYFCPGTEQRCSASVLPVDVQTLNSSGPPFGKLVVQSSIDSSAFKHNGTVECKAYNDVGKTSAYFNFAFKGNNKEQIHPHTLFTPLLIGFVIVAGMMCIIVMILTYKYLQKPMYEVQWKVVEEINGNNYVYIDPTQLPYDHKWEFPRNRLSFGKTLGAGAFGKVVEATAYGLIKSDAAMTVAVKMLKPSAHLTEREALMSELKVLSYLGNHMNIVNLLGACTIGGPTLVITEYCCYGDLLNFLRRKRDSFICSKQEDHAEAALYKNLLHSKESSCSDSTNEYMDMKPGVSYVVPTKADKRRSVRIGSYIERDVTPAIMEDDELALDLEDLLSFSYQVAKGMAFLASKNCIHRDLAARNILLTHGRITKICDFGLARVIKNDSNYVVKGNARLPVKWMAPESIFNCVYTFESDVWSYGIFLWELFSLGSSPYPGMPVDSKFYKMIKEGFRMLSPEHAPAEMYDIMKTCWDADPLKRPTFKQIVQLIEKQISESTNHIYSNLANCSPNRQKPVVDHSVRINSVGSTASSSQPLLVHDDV

[19] = molecular target: Serine/threonine-protein kinase PLK4 (Homo sapiens) (UniProt O00444); assay: Binding affinity to wild-type human partial length PLK4 (M1 to S273 residues) expressed in mammalian expression system assessed as residual binding level at 100 nM by Kinomescan method relative to control
[20] = Metabolic stability in human liver microsomes preincubated for 10 mins followed by NADPH regenerating system addition and measured after 10 mins by LC-MS/MS analysis; format: ADME, Microsome; details: time 20 min, read-out: Stability
[21] = Metabolic stability in Sprague-Dawley rat liver microsomes preincubated for 10 mins followed by NADPH regenerating system addition and measured after 10 mins by LC-MS/MS analysis; format: ADME, Microsome; details: time 20 min, read-out: Stability
[22] = Metabolic stability in CD-1 mouse liver microsomes preincubated for 10 mins followed by NADPH regenerating system addition and measured after 10 mins by LC-MS/MS analysis; format: ADME, Microsome; details: time 20 min, read-out: Stability
[23] = AUC in […] at 10 mg/kg, po or 2 mg/kg, iv measured upto 24 hrs; format: ADME, organism-based; parameters: dose 10 mg/kg, time <=24; details: in vivo

SMILES: COc1cc(N2CCC(N3CCN(C(=O)CNc4cccc5c4C(=O)N(C4CCC(=O)NC4=O)C5=O)CC3)CC2)ccc1Nc1ncc(Cl)c(Nc2ccccc2P(C)(C)=O)n1 (stereo not drawn)
- IC50 (SR [1]): 2 nM
- Activity [2]: inactive
- Activity [3]: Active
- Activity (SR [4]): Active
- Activity [5]: Active
- Ratio [6]: 0.18
- Activity (Calu-1 [7]): Active
- Activity (MDA-MB-231 [8]): inactive
- inhibition (Calu-1 [9]): Active
- Activity (Calu-1 [10]): Active
- Activity [11]: Active
- Activity (Calu-1 [12]): Active
- Activity (MDA-MB-231 [13]): Active
- Activity (MDA-MB-231 [14]): Active
- Activity [15]: 0%
- Activity [16]: 1%
- Activity [17]: 1.6%
- Activity [18]: 8.1%
- Activity [19]: 8.3%
- microsomal CLint [20]: < 9.6 µL/min/mg
- microsomal CLint [21]: < 9.6 µL/min/mg
- microsomal CLint [22]: 16.7 µL/min/mg
- AUC at 24 h [23]: 1560 ng·h/mL
